Experimental data taken from ChEMBL document CHEMBL1131820, “Synthesis of pyrazolidinone antibacterial agents” (1999).
Values after ≈ are worked out from the molar mass of the structure shown. Active and inactive are the calls of the source. The calls are words filed in the database; no cut-off is given here.

How the values were obtained:
Escherichia coli [1] = assay: Compound was tested by in vitro qualitative microbiological testings with cephalothin against Escherichia coli; No anti bacterial activity; assay type: functional, organism-based
Staphylococcus aureus [2] = assay: Compound was tested by in vitro qualitative microbiological testings with cephalothin against Staphylococcus aureus; No anti bacterial activity; assay type: functional, organism-based
Escherichia coli [3] = assay: In vitro antibacterial activity against Escherichia coli; Active; assay type: functional, organism-based
Micrococcus luteus = assay: microbe, parasite or virus in culture; assay type: functional
Description: Antibacterial activity against Micrococcus luteus; 128 to 512 ug/mL

Staphylococcus aureus [4] = assay: microbe, parasite or virus in culture; assay type: functional
Staphylococcus aureus [5] = assay: Compound was tested by in vitro qualitative microbiological testings with cephalothin against Staphylococcus aureus; positive synergy test; assay type: functional, organism-based
Escherichia coli [6] = assay: Compound was tested by in vitro qualitative microbiological testings with cephalothin against Escherichia coli; positive synergy test; assay type: functional, organism-based

SMILES	MIC (Micrococcus luteus)	MIC (Staphylococcus aureus [4])	Activity (Escherichia coli [1])	Activity (Staphylococcus aureus [2])	Activity (Escherichia coli [3])	Activity (Staphylococcus aureus [5])	Activity (Escherichia coli [6])
CN1CC(NC(=O)Cc2ccccc2)C(=O)N1 (centres undefined)	–	–	inactive	inactive	–	–	–
CC(=O)N1C(=O)C(NC(=O)Cc2ccccc2)CN1C (centres undefined)	–	–	–	–	–	positive synergy test	positive synergy test

Further lines, with some results ahead:

MIC (Micrococcus luteus)	MIC (Staphylococcus aureus [4])	SMILES	Activity (Escherichia coli [1])	Activity (Staphylococcus aureus [2])	Activity (Escherichia coli [3])	Activity (Staphylococcus aureus [5])	Activity (Escherichia coli [6])
128 µg/mL (≈ 364 µM)	128 µg/mL (≈ 364 µM)	CN1CC(NC(=O)Cc2ccccc2)C(=O)N1C(=O)Cc1ccccc1 (centres undefined)	–	–	Active	positive synergy test	–
128 µg/mL (≈ 362 µM)	128 µg/mL (≈ 362 µM)	CN1CC(NC(=O)Cc2ccccc2)C(=O)N1C(=O)c1cccc(O)c1 (centres undefined)	–	–	–	–	–
128 µg/mL (≈ 379 µM)	128 µg/mL (≈ 379 µM)	CN1CC(NC(=O)Cc2ccccc2)C(=O)N1C(=O)c1ccccc1 (centres undefined)	–	–	Active	positive synergy test	–
